Common to all, as to assay type: biochemical
The target of experiment [1] is T1, SIRT1 (Homo sapiens, UniProt Q96EB6).
T1 sequence (Q96EB6 1-747): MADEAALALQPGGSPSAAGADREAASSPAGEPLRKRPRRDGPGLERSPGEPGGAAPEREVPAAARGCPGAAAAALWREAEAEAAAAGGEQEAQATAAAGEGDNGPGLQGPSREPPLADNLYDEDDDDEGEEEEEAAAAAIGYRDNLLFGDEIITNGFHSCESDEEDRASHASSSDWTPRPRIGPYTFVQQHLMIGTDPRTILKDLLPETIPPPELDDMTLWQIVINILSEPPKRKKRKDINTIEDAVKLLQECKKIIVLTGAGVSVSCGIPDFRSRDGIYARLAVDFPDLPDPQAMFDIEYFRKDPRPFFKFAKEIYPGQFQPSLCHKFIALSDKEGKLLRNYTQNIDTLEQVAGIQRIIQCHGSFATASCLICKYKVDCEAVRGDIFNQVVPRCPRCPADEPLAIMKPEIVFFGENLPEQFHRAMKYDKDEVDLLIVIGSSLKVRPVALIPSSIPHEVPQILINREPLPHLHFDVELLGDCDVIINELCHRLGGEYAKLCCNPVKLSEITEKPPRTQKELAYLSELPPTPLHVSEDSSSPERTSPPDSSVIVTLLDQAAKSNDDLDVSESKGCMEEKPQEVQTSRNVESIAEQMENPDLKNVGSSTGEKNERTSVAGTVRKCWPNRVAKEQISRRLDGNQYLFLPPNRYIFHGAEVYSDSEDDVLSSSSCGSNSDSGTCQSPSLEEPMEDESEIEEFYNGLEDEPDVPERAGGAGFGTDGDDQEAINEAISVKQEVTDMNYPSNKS
The experiment is described as follows: PNC1-OPT fluorescent Nicotinamide Assay of SIRT1 deacetylation. The procedure: A SIRT1 enzymatic deacetylation reaction was carried out in the presence of an acetylated substrate and β-NAD. […] Subsequently, PNC1 was added to the mixture to convert all of the nicotinamide generated during the reaction into ammonia. Additionally, PNC1 may be added directly to the SIRT1 reaction (and the reactions may proceed simultaneously). […] In brief, the products of the PNC1 reaction were reacted with o-phthaladehyde in the presence of DTT. The reaction was allowed to proceed for 1 hour, and subsequently the amount of fluorescent adducts obtained were measured fluorometrically with excitation at ˜413 nm and emission at ˜476 nm. […] A blank reaction was also performed in the absence of NAD.
Prepare a master-mix for the total number of reactions you wish to perform. For each individual reaction, mix the following in the order presented (the total volume for each reaction is 100 uL):
Incubate at 37° C. for the appropriate amount of time (typically 1 hour) Reaction 2: Nicotinamide→Ammonia→Fluorescent adducts Note: When adding the OPT Developer it is advisable to work in a dark or dimly lit setting. Dim the lights prior to adding the developer to each reaction. a) Add 100 uL of the OPT Developer Mix to each reaction. b) Mix each sample by vortexing briefly for 5 s at the highest setting. c) Immediately cover all of the samples with Aluminum foil, and incubate the reactions on an orbital shaker for 1 hour at room temperature. Once covered, ambient lighting may be restored. 3) If necessary samples may be transferred to a 96-well plate for reading (do this under dim light). Read the fluorescence on a fluorometer with filters set to excitation (˜420 nm+/−20, and emission ˜450 nm (+/−20). A 0.1 s or 1 s read is generally recommended.
OPT Developer Reagent: A solution of 10 mM OPT and 10 mM DTT in 100% EtOH. Store at −20° C. in the dark until use. Cover with Aluminum foil in order to minimize exposure to light.

The target of experiment [2] is T1, SIRT1. Description: PNC1-GDH (non-fluorometric) Nicotinamide Assay of SIRT1 deacetylation. The settings on record: FIG. 4; Nicotinamide Assay depicted in FIG. 1 (PNC1-GDH); read-out: NAD Km value for SIRT1. As to the method: A SIRT1 enzymatic deacetylation reaction was carried out in the presence of an acetylated substrate and β-NAD. […] Subsequently, a-Ketoglutarate and NADPH were added to the reaction mix. The absorbance was read at 340 nm using an appropriate spectrophotometer (Ro). PNC1 and GDH were then added in excess to induce the coupled conversion of NADPH to NADP (PNC1 first converts NAM to NH3, and subsequently GDH uses the ammonia to oxidize NADPH to NADP). A second reading at 340 nm was then obtained (R1). The difference in absorbance readings, R1-Ro is proportional to the amount of NAM produced in the initial deacetylation reaction, thereby allowing for the measurement of activity. A blank reaction was carried out in the absence of NAD (or absence of Enzyme), as above, and subtracted from each sample in order to normalize the data.
Ex. Substrate Concentration (BIOMOL)=20 uM; NAD Concentration=1 mM
1) Mix the following (final volume 100 uL): • a) 10 uL 10×BIOMOL Buffer (250 mM Tris-Cl [pH=8], 1.37 M NaCl, 27 mM KCl, 10 mM MgCl2) • b) 0.4 uL *H4K16-Lys BIOMOL peptide (from a 5 mM stock for a final concentration of 20 uM) • c) 1 uL of 100 mM B-NAD (for a final concentration of 1 mM) • d) 2 uL SIRT1 enzyme (at 1.2 ug/ul, total ˜2.5 ug) • e) […] ddH20 2) Mix the reaction by pipetting. […] Place the reaction on ice until ready to proceed with reaction 2 (Centrifuge Briefly). […]

In experiment [3] the target is T2, full-length human SIRT1 enzyme (Homo sapiens, UniProt Q96EB6).
T2 construct: 1.1 ug/uL full-length human SIRT1 enzyme
T2 sequence (Q96EB6 1-747): T1 sequence (Q96EB6 1-747)
Description: Sirtuin assay kit (PNC1-OPT) with hSIRT1 enzyme. The procedure:
Kit contents are generally stored at −20° C. Modifications or variations in volumes or amounts of components described below are compatible with kits and assays described herein. • 1) Assay Buffer: 2 tubes with 1 mL each of 10× Assay Buffer. Dilute to 1× with ddH20 prior to use. • 2) Non-tagged Peptide Substrate: 1 tube with 140 uL of 5 mM H3K9ac substrate (TARK(ac)STG)) (SEQ ID NO:23). This is a sample substrate only; any substrate may be used in this assay. • 3) β-NAD: a) 1 tube with 450 uL of 10 mM B-NAD, and b) 1 tube with 50 uL of 100 mM B-NAD. In some instances, it is preferable to keep β-NAD in concentrated aliquot form, and dilute it prior to use. • 4) hSIRT1 Enzyme: 1 tube with 400 uL of 1.1 ug/uL full-length human SIRT1 enzyme. • 5) yPNC1 Enzyme: 1 tube with 200 uL of 2 ug/uL yeast PNC1 enzyme • 6) Developing Reagent: 2 vials with 10 mL each 1× Developer (10 mM OPT/10 mM DTT in 100% EtOH). Minimize exposure to light as outlined in the procedure. […]
In some instances, when adding the OPT Developer it is advisable to work in a dark or dimly lit setting. […] Once covered, ambient lighting may be restored. • d) Read the samples. Samples may be transferred to a 96-well plate for reading (do this under dim light). Read the fluorescence on a fluorometer with filters set to excitation ˜420 nm, and emission ˜460 nm. […]

Consider four compounds from patent US20120164670A1, “METHODS AND KITS FOR MEASURING ENZYME ACTIVITY” (President and Fellows of Harvard College, priority 2009, published 2012).

Like-named read-outs stand apart in the source and are kept apart here.

With “Adenosine diphosphate ribose [ADPr, reference compound]”, the “mechanism of SIRT1 inhibition” value on SIRT1 [1] (FIG. 19/20, Vmax and Vmax/K vs [ADPr] for β-NAD and H3K9 peptide) was “competitive inhibitor of β-NAD”.

Turning to “DBC1: endogenous SIRT1 protein inhibitor”, the “effect of concentration on SIRT1 activity (dose titration)” value with SIRT1 [1] (FIG. 21B, H3K9-L peptide substrate) is “inversely correlates with SIRT1 activity”.

Regarding `Oc1ccc(C=Cc2cc(O)cc(O)c2)cc1` [Resveratrol, reference compound], the “effect on SIRT1 deacetylase activity on the Fleur de Lys substrate” value at SIRT1 [1] (FIG. 10C, 100 uM, 75 uM β-NAD and 25 uM Fleur de Lys substrate) is recorded as “activation of SIRT1 deacetylase activity”.

Take `NC(=O)C1=CN([C@@H]2O[C@H](COP(=O)(O)OP(=O)(O)OC[C@H]3O[C@@H](n4cnc5c(N)ncnc54)[C@H](O)[C@@H]3O)[C@@H](O)[C@H]2O)C=CC1` [NAD, β-nicotinamide adenine dinucleotide]: the Km at SIRT1 [2] is 80 to 100 µM; at SIRT1 [1] (FIG. 8D, Nicotinamide Assay depicted in FIG. 6 (PNC1-OPT), Fleur de Lys peptide as substrate, read-out: NAD Km value for SIRT1) it was about 200 µM; in experiment [3] (kit protocol, Experiment 2 mastermix, read-out: Km of β-NAD (final concentration = Km)) it was 150 µM; in experiment [3] (stated in kit protocol (blank control note), read-out: Km for NAD), about 160 µM.
